# Values joined by “and” are separate entries in the source; they are usually repeats but may differ in a detail not shown here. Equal values may be shown once.
# Experiments:
# [1] = system: 22Rv1 (human prostate cancer); assay: Sulforhodamine B (SRB) viability assay, 22Rv1; assay type: cell-based
# From the text: (§1) Three different viability assays were chosen to complement each other and yielded results dependent on concentration and cell line: the Methyl Tetrazolium dye assay, the Sulforhodamine B fluorescent dye assay, and the Crystal Violet dye assay.
# (§2) The Sulforhodamine B and Crystal Violet assays provide information about protein and were used to complement the Methyl-Tetrazolium dye assay. […] It is used for the quantification of cellular proteins of cultured cells. The assay using Crystal Violet, a dye that binds electrostatically to proteins and stains DNA, provides a reliable, simple assay for measuring viability of cells.
# (§3) The Methyl Tetrazolium, Sulforhodamine B, and Crystal Violet assays were used to assess cell viabilities. The incubation times were 24 hours, 48 hours, and 72 hours. The Nerium oleander extract Anvirzel™ (a hot water extract of oleander obtained from Salud Integral, Honduras) was tested in concentrations ranging from 0.01 ng/mL to 10 ng/mL.
# (§4) Cells were detached by trypsinization (Trypsin-0.25% EDTA, Invitrogen, 25200-072) during the logarithmic phase of culture growth and plated in 96-well plates (18.000 cells/well) (Corning, Costar 359) in a final volume of 200 μl of medium per well. […] The absorbance was measured after 24 hours, 48 hours, and 72 hours of incubation.
# (§5) For the Sulforhodamine B assay, 96-well plates were fixed by 10% trichloroacetic acid (Fluka, 91228) and were incubated at 4° C. for 1 hour. Afterwards, plates were rinsed with water and cells were stained with 0.4% Sulforhodamine B (Sigma, 341738), dissolved in 1% acetic acid (Carlo Ebra, 401422) for 15 minutes at room temperature (RT). The unbound stain was washed twice with 1% acetic acid. Finally, 10 mM Tris Buffer pH 10.5 (Sigma, T6791) was added to dissolve the dye.
# (§6) The optical density of each plate was measured on a μQuant spectrophotometer and the data were analyzed with Gen5 software (μQuant Biomolecular Spectrophotometer MQX200 and Gen5™ Microplate Data Collection & Analysis software, BioTek® Instruments. Inc, April 2008). Absorbance was measured at 570 nm for all assays and a second wavelength was measured in order to subtract noise. For the Methyl-Tetrazolium assay this second wavelength was 630 nm and for the Sulforhodamine B and Crystal Violet assays it was 690 nm.
# [2] = system: COR-L 105 (non-small cell lung carcinoma); assay: Crystal Violet viability assay, COR-L 105; assay type: cell-based, human; parameters: key to CVE Average: absorbance at 570 nm (crystal violet), background wavelength subtracted; details: for CVE Average 24 h / CVE Average 48 h / CVE Average 72 h: COR-L 105, Run 3
# From the text: as §1, §2, §3, §4
# For the Crystal Violet assay, the medium was removed from the 96-well plates, the plates rinsed with PBS (Sigma, P3813) and then the cells were […] by the addition of 10% formalin (MERCK, 1.04003.2500) for 20 minutes at RT. Formalin was removed and 0.25% aqueous crystal violet (Sigma, HT901), dissolved in water, was added for 10 minutes at RT. Unbound Crystal Violet was rinsed by washing with water and finally 33% acetic acid was added to dissolve the dye.
# as §6
# [3] = system: COR-L 105 (non-small cell lung carcinoma); assay: Sulforhodamine B viability assay, COR-L 105; assay type: cell-based, human; parameters: key to SRB Average: absorbance (optical density) at 570 nm, second wavelength subtracted; details: for SRB Average 24 h / SRB Average 48 h / SRB Average 72 h: COR-L 105, Run 3
# From the text: as §1, §2, §3, §4, §5, §6
smiles,measurement,setting,value
N.N.[Cl][Pt][Cl] [cisplatin],SRB 24 h Average,"[1]; 22Rv1 Run 1, 0.1 μg/ml CDDP",1.847
same,SRB 48 h Average,"[1]; 22Rv1 Run 1, 0.1 μg/ml CDDP",1.685
same,SRB 72 h Average,"[1]; 22Rv1 Run 1, 0.1 μg/ml CDDP",2.018
same,SRB 24 h Average,"[1]; 22Rv1 Run 1, 1 μg/ml CDDP",1.943
same,SRB 48 h Average,"[1]; 22Rv1 Run 1, 1 μg/ml CDDP",1.549
same,SRB 72 h Average,"[1]; 22Rv1 Run 1, 1 μg/ml CDDP",1.56
same,SRB 24 h Average,"[1]; 22Rv1 Run 1, 10 μg/ml CDDP",1.744
same,SRB 48 h Average,"[1]; 22Rv1 Run 1, 10 μg/ml CDDP",1.217
same,SRB 72 h Average,"[1]; 22Rv1 Run 1, 10 μg/ml CDDP",1.141
same,SRB 24 h Average,"[1]; 22Rv1 Run 1, 100 μg/ml CDDP",1.878
same,SRB 48 h Average,"[1]; 22Rv1 Run 1, 100 μg/ml CDDP",1.121
same,SRB 72 h Average,"[1]; 22Rv1 Run 1, 100 μg/ml CDDP",1.204
same,SRB 24 h Average,"[1]; 22Rv1 Run 2, 0.1 μg/ml CDDP",1.727
same,SRB 48 h Average,"[1]; 22Rv1 Run 2, 0.1 μg/ml CDDP",2.139
same,SRB 72 h Average,"[1]; 22Rv1 Run 2, 0.1 μg/ml CDDP",2.392
same,SRB 24 h Average,"[1]; 22Rv1 Run 2, 1 μg/ml CDDP",1.647
same,SRB 48 h Average,"[1]; 22Rv1 Run 2, 1 μg/ml CDDP",1.824
same,SRB 72 h Average,"[1]; 22Rv1 Run 2, 1 μg/ml CDDP",1.395
same,SRB 24 h Average,"[1]; 22Rv1 Run 2, 10 μg/ml CDDP",1.49
same,SRB 48 h Average,"[1]; 22Rv1 Run 2, 10 μg/ml CDDP",1.46
same,SRB 72 h Average,"[1]; 22Rv1 Run 2, 10 μg/ml CDDP",1.606
same,SRB 24 h Average,"[1]; 22Rv1 Run 2, 100 μg/ml CDDP",1.495
same,SRB 48 h Average,"[1]; 22Rv1 Run 2, 100 μg/ml CDDP",1.621
same,SRB 72 h Average,"[1]; 22Rv1 Run 2, 100 μg/ml CDDP",1.247
same,"Average absorbance, SRB 24 h","[1]; 22Rv1 Run 3, 0.1 μg/ml CDDP",1.352 and 0.85
same,CVE Average 24 h,[2]; 0.1 μg/ml CDDP,0.388
same,CVE Average 48 h,[2]; 0.1 μg/ml CDDP,0.709
same,CVE Average 72 h,[2]; 0.1 μg/ml CDDP,0.457
same,CVE Average 24 h,[2]; 1 μg/ml CDDP,0.363
same,CVE Average 48 h,[2]; 1 μg/ml CDDP,0.517
same,CVE Average 72 h,[2]; 1 μg/ml CDDP,0.263
same,CVE Average 24 h,[2]; 10 μg/ml CDDP,0.358
same,CVE Average 48 h,[2]; 10 μg/ml CDDP,0.653
same,CVE Average 72 h,[2]; 10 μg/ml CDDP,0.387
same,CVE Average 24 h,[2]; 100 μg/ml CDDP,0.282
same,CVE Average 48 h,[2]; 100 μg/ml CDDP,0.341
same,CVE Average 72 h,[2]; 100 μg/ml CDDP,0.389
same,CVE Average,"[2]; Run 1, 24 h, 0.1 μg/ml CDDP",0.413
same,CVE Average,"[2]; Run 1, 24 h, 1 μg/ml CDDP",0.431
same,CVE Average,"[2]; Run 1, 24 h, 10 μg/ml CDDP",0.484
same,CVE Average,"[2]; Run 1, 24 h, 100 μg/ml CDDP",0.307
same,CVE Average,"[2]; Run 1, 48 h, 0.1 μg/ml CDDP",0.599
same,CVE Average,"[2]; Run 1, 48 h, 1 μg/ml CDDP",0.643
same,CVE Average,"[2]; Run 1, 48 h, 10 μg/ml CDDP",0.632
same,CVE Average,"[2]; Run 1, 48 h, 100 μg/ml CDDP",0.379
same,CVE Average,"[2]; Run 1, 72 h, 0.1 μg/ml CDDP",0.298
same,CVE Average,"[2]; Run 1, 72 h, 1 μg/ml CDDP",0.23
same,CVE Average,"[2]; Run 1, 72 h, 10 μg/ml CDDP",0.216
same,CVE Average,"[2]; Run 1, 72 h, 100 μg/ml CDDP",0.244
same,CVE Average,"[2]; Run 2, 24 h, 0.1 μg/ml CDDP",0.388
same,CVE Average,"[2]; Run 2, 24 h, 1 μg/ml CDDP",0.363
same,CVE Average,"[2]; Run 2, 24 h, 10 μg/ml CDDP",0.358
same,CVE Average,"[2]; Run 2, 24 h, 100 μg/ml CDDP",0.282
same,CVE Average,"[2]; Run 2, 48 h, 0.1 μg/ml CDDP",0.709
same,CVE Average,"[2]; Run 2, 48 h, 1 μg/ml CDDP",0.517
same,CVE Average,"[2]; Run 2, 48 h, 10 μg/ml CDDP",0.653
same,CVE Average,"[2]; Run 2, 48 h, 100 μg/ml CDDP",0.341
same,CVE Average,"[2]; Run 2, 72 h, 0.1 μg/ml CDDP",0.457
same,CVE Average,"[2]; Run 2, 72 h, 1 μg/ml CDDP",0.263
same,CVE Average,"[2]; Run 2, 72 h, 10 μg/ml CDDP",0.387
same,CVE Average,"[2]; Run 2, 72 h, 100 μg/ml CDDP",0.389
same,SRB Average 24 h,[3]; 0.1 μg/ml CDDP,1.731
same,SRB Average 48 h,[3]; 0.1 μg/ml CDDP,2.759
same,SRB Average 72 h,[3]; 0.1 μg/ml CDDP,2.681
same,SRB Average 24 h,[3]; 1 μg/ml CDDP,1.862
same,SRB Average 48 h,[3]; 1 μg/ml CDDP,2.832
same,SRB Average 72 h,[3]; 1 μg/ml CDDP,2.654
same,SRB Average 24 h,[3]; 10 μg/ml CDDP,1.565
same,SRB Average 48 h,[3]; 10 μg/ml CDDP,2.85
same,SRB Average 72 h,[3]; 10 μg/ml CDDP,2.737
same,SRB Average 24 h,[3]; 100 μg/ml CDDP,1.113
same,SRB Average 48 h,[3]; 100 μg/ml CDDP,2.596
same,SRB Average 72 h,[3]; 100 μg/ml CDDP,2.819
same,SRB Average,"[3]; Run 1, 24 h, 0.1 μg/ml CDDP",1.526
same,SRB Average,"[3]; Run 1, 24 h, 1 μg/ml CDDP",1.714
same,SRB Average,"[3]; Run 1, 24 h, 10 μg/ml CDDP",1.386
same,SRB Average,"[3]; Run 1, 24 h, 100 μg/ml CDDP",1.523
same,SRB Average,"[3]; Run 1, 48 h, 0.1 μg/ml CDDP",1.705
same,SRB Average,"[3]; Run 1, 48 h, 1 μg/ml CDDP",1.716
same,SRB Average,"[3]; Run 1, 48 h, 10 μg/ml CDDP",1.465
same,SRB Average,"[3]; Run 1, 48 h, 100 μg/ml CDDP",1.415
same,SRB Average,"[3]; Run 1, 72 h, 0.1 μg/ml CDDP",1.491
same,SRB Average,"[3]; Run 1, 72 h, 1 μg/ml CDDP",1.356
same,SRB Average,"[3]; Run 1, 72 h, 10 μg/ml CDDP",1.544
same,SRB Average,"[3]; Run 1, 72 h, 100 μg/ml CDDP",1.456
same,SRB Average,"[3]; Run 2, 24 h, 0.1 μg/ml CDDP",1.731
same,SRB Average,"[3]; Run 2, 24 h, 1 μg/ml CDDP",1.862
same,SRB Average,"[3]; Run 2, 24 h, 10 μg/ml CDDP",1.565
same,SRB Average,"[3]; Run 2, 24 h, 100 μg/ml CDDP",1.113
same,SRB Average,"[3]; Run 2, 48 h, 0.1 μg/ml CDDP",2.759
same,SRB Average,"[3]; Run 2, 48 h, 1 μg/ml CDDP",2.832
same,SRB Average,"[3]; Run 2, 48 h, 10 μg/ml CDDP",2.85
same,SRB Average,"[3]; Run 2, 48 h, 100 μg/ml CDDP",2.596
same,SRB Average,"[3]; Run 2, 72 h, 0.1 μg/ml CDDP",2.681
same,SRB Average,"[3]; Run 2, 72 h, 1 μg/ml CDDP",2.654
same,SRB Average,"[3]; Run 2, 72 h, 10 μg/ml CDDP",2.737
same,SRB Average,"[3]; Run 2, 72 h, 100 μg/ml CDDP",2.819
